The values below come from publication PMC10814857, “Functional Classification and Interaction Selectivity Landscape of the Human SH3 Domain Superfamily” (Cells, 2024).

Like-named read-outs stand apart in the source and are kept apart here. Peptide text beside a SMILES is read from it. Some results are limits rather than exact numbers.

Assay [1] has as its target T1, GRB2-2 SH3 domain (aa 158-215) (Homo sapiens, UniProt P62993).
T1 construct: 158-215; GST (N); made in house; host or cells: Escherichia coli CodonPlus, Rosetta, BL21(DE3)
Put plainly: Fluorescence polarization SH3 domain-PRP binding. The conditions noted are these: FP, 0.2 µM fluorescein-labeled peptide, SH3 domain 0-200 µM, Tris/HCl pH 7.5, 25 °C, quadratic fit. The gist of the method: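 First, labeled proline-rich peptide was held at 0.2 µM in 30 mM Tris/HCl (pH 7.5), 5 mM MgCl2, 3 mM DTT. Next, SH3 domains as GST fusions were added from 0 to 200 µM at 25 °C. Finally, polarization (470/560 nm) was fitted quadratically to give Kd.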

In assay [2] the target is T2, ARHGAP12Set-1 (K28S, R30N, F62G, Y63W) SH3 domain (Homo sapiens, UniProt Q8IWW6, F62G/K28S/R30N/Y63W).
T2 construct: 12-74; GST (N); made in house; host or cells: Escherichia coli (CodonPlus, Rosetta, BL21(DE3)), pGEX4-T1
Put plainly: Fluorescence polarization, SH3 domain mutant. The class given is binding. The conditions noted are these: ARHGAP12 Set-1 mutant; FP, 0.2 µM fluorescent peptide, quadratic fit. How it is done: (§1) The interaction between fluorescein-labeled proline-rich peptides (0.2 µM) and increasing concentrations of SH3 domains (ranging from 0 to 200 µM) was measured in a buffer (containing 30 mM Tris/HCl (pH 7.5), 5 mM MgCl2, and 3 mM DTT at 25 °C) in a total volume of 200 µL using a Fluoromax 4 fluorimeter in polarization mode and a quartz glass fluorescence cuvette (Hellma Ultra-Micro Cuvette 105.250-QS, Thermo Fisher Scientific, Waltham, MA USA). Excitation was performed at 470 nm and emission was measured at 560 nm. Dissociation constants (Kd) were determined by fitting the concentration-dependent binding curve to a quadratic ligand binding equation.
(§2) To better understand the role of the residues of SH3 domains in selective binding to PRPs, we have generated a multiple sequence alignment (Figure S7). It highlights the conserved and variable residues that are likely to be critical for the selectivity and affinity of the SH3 domain–PRM interactions. […] Two different sets of mutations were generated by substituting a combination of amino acids from ARHGAP12 and NCK1-3 for ABL2 and BIN1 and vice versa (Figure 3A; Table S1).
(§3) Figure S8. Mutational analysis of the SH3-fluorescent PRPs interactions using fluorescence polarization.
(§4) Fluorescent peptides (0.2 µM) were titrated with increasing concentrations of the corresponding SH3 domain mutants (see Figure 3A and Table S1). The x-axis represents SH3 domain concentrations as GST fusion proteins in µM, while the y-axis represents fluorescence polarization. The equilibrium dissociation constants (Kd) for the respective measurements were determined by fitting the titration curves to a quadratic ligand-binding equation […]
(§5) (solid lines). Error bars are derived from the fitting errors.
(§6) (1 picture or pasted object on this page, not shown here)
Background: Polarisation of emitted light reports the rotation of a fluorescent probe.

Assay [3] concerns the target T3, NCK1-3Set-2 (N225E, W229G, K244E) SH3 domain (Homo sapiens, UniProt P16333, K244E/N225E/W229G).
T3 construct: 190–252; GST (N); made in house; host or cells: Escherichia coli (CodonPlus, Rosetta, BL21(DE3)), pGEX4-T1
The assay is described as follows: Fluorescence polarization, SH3 domain mutant. The class given is binding. The conditions noted are these: NCK1-3 Set-2 mutant, FP, 0.2 µM fluorescent peptide, quadratic fit. As for the experimental part:
as §1, §2, §3, §4, §5, §6

T1 sequence (P62993 158-215): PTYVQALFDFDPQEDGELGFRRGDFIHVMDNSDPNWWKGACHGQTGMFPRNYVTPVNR
T2 sequence (Q8IWW6 12-74 K28S/R30N/F62G/Y63W): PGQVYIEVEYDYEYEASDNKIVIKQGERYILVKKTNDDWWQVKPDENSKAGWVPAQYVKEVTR

In assay [1], `CC[C@H](C)[C@H](N)C(=O)N[C@@H](CO)C(=O)N[C@@H](CC(=O)O)C(=O)N1CCC[C@H]1C(=O)N1CCC[C@H]1C(=O)N[C@@H](CCC(=O)O)C(=O)N[C@@H](CO)C(=O)N1CCC[C@H]1C(=O)N1CCC[C@H]1C(=O)N[C@@H](CC(C)C)C(=O)N[C@@H](CC(C)C)C(=O)N1CCC[C@H]1C(=O)N1CCC[C@H]1C(=O)N[C@@H](CCCNC(=N)N)C(=O)N[C@@H](CCC(=O)O)C(=O)N1CCC[C@H]1C(=O)N[C@H](C(=O)N[C@@H](CCCNC(=N)N)C(=O)N[C@H](C(=O)N1CCC[C@H]1C(=O)N[C@@H](CC(=O)O)C(=O)N[C@H](C(=O)O)C(C)C)[C@@H](C)O)C(C)C` [Peptide P5] (H-ISDPPESPPLLPPREPVRTPDV-OH) displayed a Kd of 35 µM. For the compound `C[C@H](N)C(=O)N[C@@H](Cc1ccccc1)C(=O)N[C@@H](Cc1ccccc1)C(=O)N1CCC[C@H]1C(=O)N[C@@H](CC(N)=O)C(=O)N[C@@H](CO)C(=O)N1CCC[C@H]1C(=O)N[C@@H](CO)C(=O)N1CCC[C@H]1C(=O)N[C@@H](Cc1ccccc1)C(=O)N[C@H](C(=O)N1CCC[C@H]1C(=O)N1CCC[C@H]1C(=O)N1CCC[C@H]1C(=O)N1CCC[C@H]1C(=O)N[C@@H](CCC(N)=O)C(=O)N[C@H](C(=O)N1CCC[C@H]1C(=O)N[C@@H](CO)C(=O)N1CCC[C@H]1C(=O)N[C@@H](Cc1c[nH]cn1)C(=O)NCC(=O)N[C@H](C(=O)O)[C@@H](C)O)[C@@H](C)O)[C@@H](C)O` [Peptide P7] (H-AFFPNSPSPFTPPPPQTPSPHGT-OH), the Kd in assay [2] is 23 µM; in assay [1], greater than 200 µM. Take `CC(C)[C@H](N)C(=O)N1CCC[C@H]1C(=O)N[C@H](C(=O)N1CCC[C@H]1C(=O)N1CCC[C@H]1C(=O)N1CCC[C@H]1C(=O)N[C@H](C(=O)N1CCC[C@H]1C(=O)N1CCC[C@H]1C(=O)N[C@@H](CCCNC(=N)N)C(=O)N[C@@H](CCCNC(=N)N)C(=O)N[C@@H](CCCNC(=N)N)C(=O)O)C(C)C)C(C)C` [RP1, reference compound]: binding in assay [1] was characterised by a dissociation constant (Kd) of 3.4 µM.

For the compound `CC(C)C[C@H](NC(=O)[C@@H]1CCCN1C(=O)[C@@H]1CCCN1C(=O)[C@H](CO)NC(=O)[C@@H]1CCCN1C(=O)[C@H](CC(C)C)NC(=O)[C@H](Cc1c[nH]cn1)NC(=O)[C@@H](N)CCCNC(=N)N)C(=O)N[C@H](C(=O)N[C@@H](CCC(N)=O)C(=O)O)[C@@H](C)O` [Peptide P8] (H-RHLPSPPLTQ-OH; N-terminus and C-terminus assumed), in assay [1], the Kd is greater than 200 µM. For `CC[C@H](C)[C@H](NC(=O)[C@H](Cc1c[nH]cn1)NC(=O)[C@@H](N)CCC(N)=O)C(=O)N1CCC[C@H]1C(=O)N[C@@H](CCCCN)C(=O)N[C@@H](CC(C)C)C(=O)N1CCC[C@H]1C(=O)N1CCC[C@H]1C(=O)N[C@@H](CCCCN)C(=O)N[C@H](C(=O)N[C@@H](Cc1ccc(O)cc1)C(=O)O)[C@@H](C)O` [Peptide P10] (H-QHIPKLPPKTY-OH; N-terminus and C-terminus assumed), in assay [1], the Kd was greater than 200 µM. In assay [1], `CC[C@H](C)[C@H](NC(=O)[C@H](CCCCN)NC(=O)[C@H](CO)NC(=O)[C@@H]1CCCN1C(=O)[C@H](CO)NC(=O)[C@H](CO)NC(=O)[C@H](CCC(=O)O)NC(=O)[C@H](C)NC(=O)[C@@H]1CCCN1C(=O)[C@H](C)NC(=O)[C@H](CO)NC(=O)[C@H](CCC(=O)O)NC(=O)[C@@H]1CCCN1C(=O)[C@H](CCCNC(=N)N)NC(=O)[C@H](CCCNC(=N)N)NC(=O)[C@H](CCCNC(=N)N)NC(=O)[C@@H]1CCCN1C(=O)[C@@H]1CCCN1C(=O)[C@@H](NC(=O)[C@@H]1CCCN1C(=O)[C@@H]1CCCN1C(=O)[C@@H]1CCCN1C(=O)[C@@H](NC(=O)[C@@H]1CCCN1C(=O)[C@@H](NC(=O)[C@@H](N)CCC(=O)O)C(C)C)C(C)C)C(C)C)C(=O)O` [Peptide P3] (H-EVPVPPPVPPRRRPESAPAESSPSKI-OH) returned a Kd of 12 µM. Same read-out and setting: in the case of `CC[C@H](C)[C@H](NC(=O)[C@H](C)NC(=O)[C@@H]1CCCN1C(=O)[C@@H]1CCCN1C(=O)[C@H](CO)NC(=O)[C@H](CC(=O)O)NC(=O)[C@@H](N)CC(C)C)C(=O)N1CCC[C@H]1C(=O)N1CCC[C@H]1C(=O)N[C@@H](CCCNC(=N)N)C(=O)N[C@@H](CCC(N)=O)C(=O)N1CCC[C@H]1C(=O)N[C@H](C(=O)N[C@@H](CO)C(=O)N[C@@H](CCCCN)C(=O)O)[C@@H](C)O` [Peptide P4] (H-LDSPPAIPPRQPTSK-OH) it was 20 µM. In the case of `CC[C@H](C)[C@H](N)C(=O)N[C@@H](C)C(=O)NCC(=O)N1CCC[C@H]1C(=O)N1CCC[C@H]1C(=O)N[C@H](C(=O)N1CCC[C@H]1C(=O)N1CCC[C@H]1C(=O)N[C@@H](CCCNC(=N)N)C(=O)N[C@@H](CCC(N)=O)C(=O)N[C@@H](CO)C(=O)O)C(C)C` [Peptide P9] (H-IAGPPVPPRQS-OH), the values for the Kd entry in assay [3], in assay [3] (read-out: Kd) and in assay [1] were “did not differ from the NCK1-3^wt”, 0.8 µM and greater than 200 µM, respectively. For the compound `CC(C)C[C@H](NC(=O)[C@H](Cc1c[nH]cn1)NC(=O)[C@H](CC(C)C)NC(=O)[C@@H]1CCCN1C(=O)[C@H](CO)NC(=O)[C@H](CO)NC(=O)[C@@H](N)CO)C(=O)N[C@@H](CCC(N)=O)C(=O)N1CCC[C@H]1C(=O)N1CCC[C@H]1C(=O)N1CCC[C@H]1C(=O)N[C@@H](CC(C)C)C(=O)NCC(=O)N[C@@H](CCCCN)C(=O)N[C@@H](CCCCN)C(=O)O` [Peptide P6] (H-SSSPLHLQPPPLGKK-OH; N-terminus and C-terminus assumed), in assay [1], the Kd is greater than 200 µM. `CC(C)C[C@H](NC(=O)[C@@H]1CCCN1C(=O)[C@@H](NC(=O)[C@H](CCCNC(=N)N)NC(=O)[C@@H]1CCCN1C(=O)[C@H](CO)NC(=O)[C@H](CC(N)=O)NC(=O)[C@@H]1CCCN1C(=O)[C@H](C)NC(=O)[C@@H](N)CO)[C@@H](C)O)C(=O)N[C@H](C(=O)N1CCC[C@H]1C(=O)N1CCC[C@H]1C(=O)N1CCC[C@H]1C(=O)N[C@@H](C)C(=O)N[C@@H](CO)C(=O)O)[C@@H](C)O` [Peptide P1] (H-SAPNSPRTPLTPPPAS-OH) gave a Kd in assay [1] greater than 200 µM. `CC(C)C[C@H](NC(=O)[C@@H](NC(=O)[C@@H](N)C(C)C)[C@@H](C)O)C(=O)N1CCC[C@H]1C(=O)N[C@@H](Cc1c[nH]cn1)C(=O)NCC(=O)N1CCC[C@H]1C(=O)N[C@@H](CCCNC(=N)N)C(=O)N[C@@H](CO)C(=O)N[C@@H](C)C(=O)O` [Peptide P2] (H-VTLPHGPRSA-OH) came in with a Kd in assay [1] greater than 200 µM. On to `CC(C)[C@H](NC(=O)[C@@H]1CCCN1C(=O)[C@@H]1CCCN1C(=O)[C@H](C)NC(=O)[C@H](CCC(=O)O)NC(=O)[C@H](CS)NC(=O)[C@@H](N)CCCNC(=N)N)C(=O)N1CCC[C@H]1C(=O)N1CCC[C@H]1C(=O)N[C@@H](CCCNC(=N)N)C(=O)N[C@@H](CCCNC(=N)N)C(=O)N[C@@H](CCC(=O)O)C(=O)N[C@@H](CCCNC(=N)N)C(=O)NCC(=O)O` [RP2, reference compound] (H-RCEAPPVPPRRERG-OH), for which the Kd in assay [1] worked out at 12.9 µM.

In general, Kd refers to a measure of binding affinity in units of concentration.
